Measured values from PMC9668969 (Nature Communications, 2022).
Values joined by “and” are separate entries in the source; they are usually repeats but may differ in a detail not shown here. Equal values may be shown once.

Legend:
WT ELIC [1] = assay: Asymmetric liposome stopped-flow Tl+ flux assay (no exchange vs exchange, 25 mol% outer leaflet POPG); type: biochemical, Erwinia chrysanthemi; parameters: key to Tl+ flux quenching rate, Avg. / Tl+ flux quenching rate: Tl+ influx rate kt at 2 ms from stretched-exponential fit (Eq. 2b); conditions: for Tl+ flux quenching rate, Avg. / Tl+ flux quenching rate: Exchange: WT in 3:1 PC:PE, 25% POPG in outer leaflet by beta-CD; for Tl+ flux quenching rate: single experiments
Experimental: (§1) The fluorescence sequential-mixing stopped-flow liposomal flux measurements were carried using an SX20 stopped-flow spectrofluorometer (Applied Photophysics) and Pro-Data SX software[13],[30]. 7.5 mg of the respective lipid mixture (POPC, 1:1 POPC: POPE, 1:1 POPC:POPG, 3:1 POPC:POPE, 3:1 POPC:POPG, 2:1:1 POPC:POPE:POPG) was dried in a glass vial to a thin film under a constant stream of N2. The lipids were then further dried under vacuum in a desiccator overnight. The following day the lipids were hydrated in 500 µl of reconstitution buffer (100 mM NaNO3, 10 mM HEPES, pH 7) (Buffer R), 250 µl of 75 mM 8-Aminonaphthalene-1,3,6-Trisulfonic Acid (ANTS, ThermoFisher Scientific) in buffer R, and doped with ~18 mg of CHAPS (Anatrace). The mixture was vortexed and then sonicated with heat until completely solubilized. Following the sonication, the solution was brought to RT then 3.5 µl of 6.7 mg/ml ELIC in Buffer A with 0.02% DDM was added (3 µg per mg of lipid). This combined solution was incubated at RT for 30 min, followed by the addition of 1 ml of 1:1 v/v SM-2 BioBeads in Buffer R and an additional 250 µl of 75 mM ANTS in Buffer R. This mixture was incubated at RT for 2.5 hr with gentle mixing. The liposome suspension was then extruded with an Avanti mini-extruder and 0.1 µm membrane (30×). The extruded liposomes were stored at 13 °C overnight with gentle rotation. The next day, the liposomes were diluted to 2.5 mL using assay buffer (140 mM NaNO3, 10 mM HEPES, pH 7) (Stopped-flow Buffer A), loaded into a PD-10 desalting column (Cytiva), eluted with 3 mL of Stopped-flow Buffer A and subsequently diluted 5-fold with Stopped-flow Buffer A.
Using propylamine as the agonist, the assay and analysis was carried out as previously described[13],[30]. ELIC-containing liposomes were first mixed 1:1 with Buffer A containing 2× the concentration of propylamine. After a variable delay of 10 ms to 25 s, the sample was then mixed 1:1 with a quenching buffer (90 mM NaNO3, 50 mM TlNO3, 10 mM HEPES, pH 7), and ANTS fluorescence (ex. 360 nm, fluorescence above 420 nm) was recorded for 1 s. For each delay time, 5 repeat measurements were obtained. The data were collected using Applied Photophysics Pro-Data SX software. The fluorescence quenching traces were fit to a stretched exponential (Eq. 2a) and the rate of Tl^+ influx was determined at 2 ms (Eq. 2b).2a Ft=F∞+F0−F∞⋅e^−t/τ^β 2b kt=β/τ⋅2ms/τ^(β−1) where Ft, F∞, F0 are the fluorescence at time t, final fluorescence and initial fluorescence. τ is the time constant, β the stretched exponential factor, and kt the calculated rate of Tl^+ influx at 2 ms. The time course of desensitization was also fit to a double exponential and a weighted time constant was calculated as was done for the patch-clamp data using Origin 2019b. All replicates were taken from independent samples.
Acceptor liposomes were prepared as described in the Stopped-flow fluorescence recordings section until completion of the extrusion step. The preparation was scaled up 2x to produce samples for the no-exchange and exchange conditions. After extrusion and storage of the liposomes overnight at 13 °C, the double liposome preparation was split into two equal volume aliquots of ~1.5 ml. Using the excel spreadsheet provided by Markones et al.[44], donor POPG and methyl-β-cyclodextrin (MβCD, Sigma) concentrations and volumes were calculated to produce an outer leaflet POPG content of 25 mol% in the liposomes. The calculations assumed a ~6.66 mM lipid concentration and 1.5 mL volume of the acceptor liposome solution[44]. A MβCD-POPG (50% saturation of MβCD by POPG) solution was formed by combining 224 µL 7.5 mM POPG in Stopped-flow Buffer A, 650 µl 300 mM MβCD in Stopped-flow Buffer A, and 126 µL Stopped-flow Buffer A, which was then mixed at 50 °C and 1000 RPM for 20 min using an Eppendorf thermomixer. […]

ELIC T259A = target: T1, ELIC T259A (Dickeya chrysanthemi, UniProt P0C7B7, T258A/T259A); type: biochemical, Erwinia chrysanthemi; conditions: 25 mol% outer leaflet POPG, 10 mM propylamine
T1 construct: host or cells: OverExpress C43 (DE3) E. coli
Experimental: (§2) The mutations were tested as for WT by examining the effect of 25 mol% outer leaflet POPG in paired (no exchange versus exchange) samples (Supplementary Fig. 15).
as §1
(§3) Using propylamine as the agonist, the assay and analysis was carried out as previously described[13],[30].

ELIC S202A = target: T2, ELIC S202A (Dickeya chrysanthemi, UniProt P0C7B7, S201A); type: biochemical, Erwinia chrysanthemi; conditions: 25 mol% outer leaflet POPG, 10 mM propylamine
T2 construct: host or cells: OverExpress C43 (DE3) E. coli
Experimental: as §2, §1, §3

ELIC R318A = target: T3, ELIC R318A (Dickeya chrysanthemi, UniProt P0C7B7, R317A); type: biochemical, Erwinia chrysanthemi; conditions: 25 mol% outer leaflet POPG, 10 mM propylamine
T3 construct: host or cells: OverExpress C43 (DE3) E. coli
Experimental: as §2, §1, §3

ELIC Q264L = target: T4, ELIC Q264L (Dickeya chrysanthemi, UniProt P0C7B7, Q263L); type: biochemical, Erwinia chrysanthemi; conditions: 25 mol% outer leaflet POPG, 10 mM propylamine
T4 construct: host or cells: OverExpress C43 (DE3) E. coli
Experimental: as §2, §1, §3

ELIC W206F = target: T5, ELIC W206F (Dickeya chrysanthemi, UniProt P0C7B7, W205F); type: biochemical, Erwinia chrysanthemi; conditions: 25 mol% outer leaflet POPG, 10 mM propylamine
T5 construct: host or cells: OverExpress C43 (DE3) E. coli
Experimental: as §2, §1, §3

WT ELIC [2] = conditions: without BaCl2; cited from earlier work
[3] = 25 mol% in outer leaflet, 10 mM propylamine
[4] = 10 mM propylamine, delay 0.01 s
[5] = 10 mM propylamine, delay 0.05 s
[6] = 10 mM propylamine, delay 0.25 s

T4 sequence (P0C7B7 whole entry Q263L): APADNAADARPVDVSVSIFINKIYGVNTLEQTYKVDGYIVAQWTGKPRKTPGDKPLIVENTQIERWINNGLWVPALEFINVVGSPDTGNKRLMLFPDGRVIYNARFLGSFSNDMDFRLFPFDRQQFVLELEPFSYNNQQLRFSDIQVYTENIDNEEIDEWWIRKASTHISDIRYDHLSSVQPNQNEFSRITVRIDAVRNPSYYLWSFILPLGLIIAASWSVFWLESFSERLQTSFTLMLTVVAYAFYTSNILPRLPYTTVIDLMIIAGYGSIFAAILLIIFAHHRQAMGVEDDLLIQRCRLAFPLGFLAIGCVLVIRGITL
T5 sequence (P0C7B7 whole entry W205F): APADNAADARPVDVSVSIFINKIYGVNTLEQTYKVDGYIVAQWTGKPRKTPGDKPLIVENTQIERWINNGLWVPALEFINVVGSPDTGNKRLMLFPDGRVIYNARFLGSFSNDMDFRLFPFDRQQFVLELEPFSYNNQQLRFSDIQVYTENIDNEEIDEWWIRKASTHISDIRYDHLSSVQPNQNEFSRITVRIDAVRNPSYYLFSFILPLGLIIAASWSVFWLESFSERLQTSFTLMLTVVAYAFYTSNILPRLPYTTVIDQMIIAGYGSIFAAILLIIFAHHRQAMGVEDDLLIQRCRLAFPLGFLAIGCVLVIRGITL
T3 sequence (P0C7B7 whole entry R317A): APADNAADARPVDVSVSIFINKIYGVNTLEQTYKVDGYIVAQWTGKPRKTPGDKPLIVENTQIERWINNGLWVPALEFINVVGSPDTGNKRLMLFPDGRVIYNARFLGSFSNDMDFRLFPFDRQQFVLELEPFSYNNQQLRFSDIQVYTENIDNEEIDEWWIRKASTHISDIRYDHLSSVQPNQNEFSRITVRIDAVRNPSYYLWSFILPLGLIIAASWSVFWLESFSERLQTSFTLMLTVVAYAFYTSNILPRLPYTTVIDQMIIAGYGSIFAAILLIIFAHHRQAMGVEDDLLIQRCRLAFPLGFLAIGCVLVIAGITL
T1 sequence (P0C7B7 whole entry T258A/T259A): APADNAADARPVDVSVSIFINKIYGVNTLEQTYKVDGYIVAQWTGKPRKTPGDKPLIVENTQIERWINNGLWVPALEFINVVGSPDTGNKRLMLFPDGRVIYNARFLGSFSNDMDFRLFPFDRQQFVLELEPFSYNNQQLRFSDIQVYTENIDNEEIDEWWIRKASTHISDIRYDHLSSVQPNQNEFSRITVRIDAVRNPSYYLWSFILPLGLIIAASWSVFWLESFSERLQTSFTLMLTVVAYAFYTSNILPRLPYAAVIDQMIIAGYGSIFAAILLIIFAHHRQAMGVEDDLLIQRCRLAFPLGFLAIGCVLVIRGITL
T2 sequence (P0C7B7 whole entry S201A): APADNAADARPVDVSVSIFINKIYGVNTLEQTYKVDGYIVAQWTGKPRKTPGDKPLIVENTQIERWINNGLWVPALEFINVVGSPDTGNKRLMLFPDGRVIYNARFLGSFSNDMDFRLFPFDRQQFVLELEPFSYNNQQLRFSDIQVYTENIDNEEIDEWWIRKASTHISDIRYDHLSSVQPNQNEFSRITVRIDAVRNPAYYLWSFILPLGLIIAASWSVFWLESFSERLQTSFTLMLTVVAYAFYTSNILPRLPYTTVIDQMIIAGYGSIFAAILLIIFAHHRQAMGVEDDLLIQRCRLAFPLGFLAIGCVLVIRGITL

CCCCCCCC/C=C\CCCCCCCC(=O)OC(COC(=O)CCCCCCCCCCCCCCC)COP(=O)(O)OCC(O)CO (stereo not shown) [POPG, 1-palmitoyl-2-oleoyl-phosphatidylglycerol]
time constant of desensitization (WT ELIC [1]; 25% POPG introduced to the outer leaflet): ~ 6 s | effect on peak agonist response (WT ELIC [1]; [3]): increased the peak agonist response approximately two-fold | effect on rate of desensitization (WT ELIC [1]; [3]): reduced the rate of desensitization | Tl+ flux quenching rate, Avg. (WT ELIC [1]; [4]): 18.3739 | Tl+ flux quenching rate, Avg. (WT ELIC [1]; 10 mM propylamine, delay 0.025 s): 13.1397 | Tl+ flux quenching rate, Avg. (WT ELIC [1]; [5]): 28.9905 | Tl+ flux quenching rate, Avg. (WT ELIC [1]; 10 mM propylamine, delay 0.1 s): 40.2879 | Tl+ flux quenching rate, Avg. (WT ELIC [1]; [6]): 49.694 | Tl+ flux quenching rate, Avg. (WT ELIC [1]; 10 mM propylamine, delay 0.5 s): 74.7874 | Tl+ flux quenching rate, Avg. (WT ELIC [1]; 10 mM propylamine, delay 1 s): 70.2446 | Tl+ flux quenching rate, Avg. (WT ELIC [1]; 10 mM propylamine, delay 2.5 s): 59.7249 | Tl+ flux quenching rate, Avg. (WT ELIC [1]; 10 mM propylamine, delay 5 s): 40.3668 | Tl+ flux quenching rate, Avg. (WT ELIC [1]; 10 mM propylamine, delay 10 s): 38.6421 | Tl+ flux quenching rate, Avg. (WT ELIC [1]; 10 mM propylamine, delay 25 s): 9.131 | Tl+ flux quenching rate (WT ELIC [1]; [4]): 25.3857 and 14.5673 and 13.3121 and 20.2302 | Tl+ flux quenching rate (WT ELIC [1]; [5]): 31.4624 and 22.583 and 30.1073 and 31.8092 | Tl+ flux quenching rate (WT ELIC [1]; [6]): 55.8845 and 34.2232 and 67.362 and 41.3064 | Tl+ flux quenching rate (WT ELIC [1]; 10 mM propylamine, delay 0.5 s): 114.141 and 61.2513 and 65.8238 and 57.9331 | POPG modulation (peak response and desensitization) (ELIC T259A): POPG only decreases desensitization | POPG modulation (peak response and desensitization) (ELIC S202A): both effects of POPG (increased peak response and decreased desensitization) are abolished | POPG modulation (peak response and desensitization) (ELIC R318A): POPG only decreases desensitization | POPG modulation (peak response and desensitization) (ELIC Q264L): POPG modulation is preserved | increase in the measurable peak response (ELIC Q264L): 2 × | POPG modulation (peak response and desensitization) (ELIC W206F): POPG only decreases desensitization

NCCS [cysteamine]
EC50 (WT ELIC [2]): 1000 to 2000 µM
